Key:
NF-κB = NF-κB dual luciferase reporter assay in TNF-stimulated HEK 293 T cells; format: cell-based; details: 10 μmol/L, HEK 293T stimulated by TNF-α, P < 0.05
Protocol: The separation process was repeated five times for use in the activity tests. […] After 48 h, radioactive elements had decayed, the residues were stored at 4°C for anti-inflammatory activity tests ([Dong et al., 2013]; [Qingxin et al., 2016]).
HEK 293 T cells were cultured in standard Dulbecco’s modified Eagle’s medium (DMEM; Hyclone) supplemented with 10% fetal bovine serum (FBS; Biological Industries). The cells were placed in 96-well plates at 37°C in an air-CO2 environment (95/5% v/v). Cells were grown to 80–90% confluence and incubated for 12 h in DMEM without FBS. Transfection (20 h) was performed according to the manufacturer’s instructions. HEK 293 T cells were pretreated with drugs 1 h prior to TNF-stimulation (5 ng/mL) for 6 h. Dex (10^-5mol/L) was used as a positive control for NF-κB inhibition. The NF-κB activity was assayed using dual luciferase reporter assay system (Promega) according to the manufacturer’s instructions ([Qingxin et al., 2016]). Antiinflammatory activity was calculated as the ratio of firefly luciferase activity to Renilla luciferase activity (internal control).

[1] = MicroPET biodistribution of [^18F]-GA in mice; format: in vivo
Protocol: The mice were grouped by weight and housed in cages of the climate control room (25°C), with a photoperiod 12:12-h. During feeding, mice were free to access food and water. Mice were fasted for 24 h before the experiment. The mice were anesthetized with 4% isoflurane while preparing for scanning ([Constantinescu et al., 2013b]; [Cui et al., 2017]). Eighteen healthy male Kunming mice, weighing 20 ± 2 g, were divided into three groups, which were control group, once-administered (OA) group and long-term administration (LA) group. In the OA group, 1 h before the administration of [^18F]-GA, the mice were orally treated with PG polysaccharides. In the LA group, the mice were orally given the PG polysaccharides for 7 days, but not before the administration of [^18F]-GA.
Rice received a tail vein injection (8.67 ± 2.14 MBq/μg) of [^18F]-GA and placed in the scanner bed and mouse-imaging room immediately ([Constantinescu et al., 2013b]; [O’Doherty et al., 2017]). Firstly, 2 h PET scanning was performed using an Inveon-dedicated PET scanner. The average delay between injection and starting of PET scanning was 3.5 min. Rice were maintained stable under 4% isoflurane anesthesia throughout scanning. The PET list-mode data were dynamically classified into 23 3D sinograms of span and three ring difference. After Fourier recombination, the data were reconstructed using a 2D ordered-subset expectation maximization algorithm. Random events were excluded before reconstruction. The response of detector is normalized using a component-based approach. All dynamic images were corrected for radioactive decay automatically. The PET images were reconstructed by a cone beam algorithm into 480 × 480 × 632 image arrays. After the reconstruction, images were spatially transformed to match the PET images ([Constantinescu et al., 2013a],[b]).
The reconstruction of the image was performed using the PMOD software (PMOD Technologies). The 3D volumes of interest (VOIs) were drawn manually of the following organs: brain, heart, liver, lungs, kidneys, cortical bone, and gallbladder. The organs were carefully identified and VOIs were drawn as irregular contours on high-resolution PET images obtained from each mouse ([Constantinescu et al., 2013b]; [Garg et al., 2017]). The size of each VOI was less than the actual size of each organ to minimize the effects of PET on adjacent organ spills. The VOIs drawing was verified by a second operator. The VOIs of cortical bone were generated by first using PET image to depict the entire femur bone ([Constantinescu et al., 2013b]). The VOI was transferred to a dynamic PET image and the mean time-activity curve (TAC) of the decay correction was extracted for each target organ ([Constantinescu et al., 2013b]).

| SMILES | NF-κB inhibitory effect (NF-κB) | passage of the blood brain barrier ([1]; mice, concluded from brain concentrations) | concentration in the brain of the mouse ([1]; results obtained from PET) |
| --- | --- | --- | --- |
| C[C@@H]1C[C@H]2[C@@H]3CCC4=CC(=O)C=C[C@]4(C)[C@@]3(F)[C@@H](O)C[C@]2(C)[C@@]1(O)C(=O)CO [Dex, reference compound] | significant NF-κB inhibitory effects |  |  |
| CC1(C)[C@@H](O)CC[C@]2(C)[C@H]3C(=O)C=C4[C@@H]5C[C@@](C)(C(=O)O)CC[C@]5(C)CC[C@@]4(C)[C@]3(C)CC[C@@H]12 [GA, Glycyrrhetic acid, reference compound] |  | could not pass the blood brain barrier | very low, almost undetectable |
